Data from patent US20230321188A1, “AUTOPHAGY INDUCING PEPTIDES” (TRANSLATIONAL HEALTH SCIENCE AND TECHNOLOGY INSTITUTE, priority 2020, published 2023).
Where a SMILES comes first, the peptide text is derived from it.

T1: GAPR-1 (UniProt Q9H4G4 2-154, limits assumed)
T1 construct: Purified protein used in MST; also called purified Gapr-1
T1 sequence (looked up): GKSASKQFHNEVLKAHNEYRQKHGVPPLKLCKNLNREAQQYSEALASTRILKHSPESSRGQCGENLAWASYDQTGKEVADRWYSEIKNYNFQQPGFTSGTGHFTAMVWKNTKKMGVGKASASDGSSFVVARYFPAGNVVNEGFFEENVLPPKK

B1: P8T (peptide)
peptide: LYCSGGLRFFWD
notes: also called peptide P8T
B2: P9T (peptide)
peptide: QTVLLLHAL
notes: also called peptide P9T
B3: P7T (peptide)
peptide: FGTINNFRL
notes: also called peptide P7T
B4: P3T (peptide)
peptide: PYGNHSY
notes: also called peptide P3T
B5: P13T (peptide)
peptide: RLVPYGNHSYLES
notes: also called peptide P13T

Key:
S. typhimurium = format: cell-based; settings: 24 h
mTOR = mTOR independent activation of autophagy: western blot of S6Kinase / 4E-BP1 phosphorylation; format: cell-based; settings: Huh7 cells, peptides 10 μM, 6 h
Experimental: FIG. 5 depicts mTOR independent activation of autophagy Huh7 cells were treated with peptides (10 μM) and torin1 (1 μM) for 6 h and lysed in lysis buffer (1mM EDTA, 20 mM Tris-HCl pH 7.4, 250 mM NaCl, PMSF, and PI). Western blot was performed by GAPDH (internal control), […] and S6K1 antibodies. The peptides were tested for inhibition of mTOR by testing for phosphorylation of enzyme p70S6K. The phosphorylation of p-p70S6K at threonine 389 has been used as a hallmark of activation by mTOR.
Huh7/HeLa cells were treated with peptides 10 μM for 6 h and protein lysates were analysed by western blotting using pS6Kinase, S6Kinase, p-4E-BP1, 4E-BP1 and GAPDH antibodies. Torin 1 was used as positive control.

[1] = tested on: S. typhimurium (strain Xen33); assay: In vivo S. typhimurium (Xen33) infection and disease progression in FVB mice
Experimental: For the in vivo studies, mouse S. typhimurium (strain Xen33) infection carried out as per the previous protocol of Griffin et al., 2011. In brief, mice were pre-treated with streptomycin. Water and food were withdrawn before 4hours of infection. For the experiments, 6-8 weeks of FVB male mice were utilized in a group of 5. Mice related experiments and its maintenance were carried out in a small animal facility at THSTI, Faridabad. […] FVB mice were infected orally with Xen-33(S. typhimurium) and its bioluminescence was measured by in vivo imaging with IVIS Lumina (Perkin Elmer) and quantified with living image software version 4.2. Bioluminescent levels were measured as radiance (p/sec/cm^2/sr), by using a pseudo scale for measurement in which blue represents low intensity and red represents high intensity. Posts in vivo imaging, the bacterial burden in faecal sample were also measured.
Mice having Salmonella typhimurium infection or non-infected were sacrificed and their intestine was removed for immunohistochemistry studies. Intestines were washed with PBS and fixed in 10% formaldehyde. Thereafter, fine-sectioned on a microtome. Tissue blocks were prepared on Paraffin wax and then hematoxylin and eosin (HE) staining was carried out. The finally stained sections were then observed, and images were acquired by using the Ti Eclipse Nikon microscope. The scoring was done by random scoring by different individuals.
In vivo effect of p7T treatment on S. typhimurium infection and disease progression in FVB mice. Recovery of chronically S. typhimurium infected FVB mice was studied in the presence of P7T&P13T. […] Colon samples were further examined for histological changes. […] The stool was collected, plated on SS agar to determine S. typhimurium colony formation.
(c) In vivo imaging and intensity quantitation of mice infected with S. typhimurium strain (Xen33) expressing luciferase on the 8th day (n=5 mice per group). […] (i) Immunohistochemistry images (40×) showing expression of HIF-1α and its quantification in the colon (n=5). […] Data representative of triplicates and repeated three times each individual experiments*P<0.05, **P <0.01, ***P<0.001, **** P<0.0001, ns, non-significant. (Student's t-test and one-way ANOVA).

GAPR-1 [2] = biological target: T1, GAPR-1; assay: MicroScale Thermophoresis (MST), purified Gapr-1
GAPR-1 [3] = biological target: T1, GAPR-1; assay: MicroScale Thermophoresis (MST), peptide titrated on purified Gapr-1; fraction bound against peptide conc. (M) [3A]
[4] = FVB mice infected with S. typhimurium

| Molecule | interference with phosphorylation of p70S6K and mTOR activity (mTOR) | Kd (GAPR-1 [2]) [nM] | also measured |
| --- | --- | --- | --- |
| NC(=O)C[C@H](NC(=O)CNC(=O)[C@H](Cc1ccc(O)cc1)NC(=O)[C@@H]1CCCN1)C(=O)N[C@@H](Cc1c[nH]cn1)C(=O)N[C@@H](CO)C(=O)N[C@@H](Cc1ccc(O)cc1)C(=O)O [P3T] (H-PYGNHSY-OH; N-terminus and C-terminus assumed) |  |  | inhibition of S. typhimurium (S. typhimurium): 49.5% |
| CC[C@H](C)[C@H](NC(=O)[C@@H](NC(=O)CNC(=O)[C@@H](N)Cc1ccccc1)[C@@H](C)O)C(=O)N[C@@H](CC(N)=O)C(=O)N[C@@H](CC(N)=O)C(=O)N[C@@H](Cc1ccccc1)C(=O)N[C@@H](CCCNC(=N)N)C(=O)N[C@@H](CC(C)C)C(=O)O [P7T] (H-FGTINNFRL-OH) | did not interfere with the phosphorylation of p70S6K and mTOR activity |  | bacterial burden in faecal sample / stool ([1]; FVB mice infected orally with Xen-33, stool plated on SS agar): significant decrease in bacterial burden; length of the colon [1, 4]: significantly reduced in untreated mice compare to P7T; splenomegaly [1, 4]: difference in splenomegaly was not observed; histopathology score ([1]; intestine/colon H&E staining, FVB mice infected with S. typhimurium): significantly less |
| CC(C)C[C@H](NC(=O)CNC(=O)CNC(=O)[C@H](CO)NC(=O)[C@H](CS)NC(=O)[C@H](Cc1ccc(O)cc1)NC(=O)[C@@H](N)CC(C)C)C(=O)N[C@@H](CCCNC(=N)N)C(=O)N[C@@H](Cc1ccccc1)C(=O)N[C@@H](Cc1ccccc1)C(=O)N[C@@H](Cc1c[nH]c2ccccc12)C(=O)N[C@@H](CC(=O)O)C(=O)O [P8T] (H-LYCSGGLRFFWD-OH) |  |  | inhibition of S. typhimurium (S. typhimurium): 62.16% |
| CC(C)C[C@H](NC(=O)[C@H](C)NC(=O)[C@H](Cc1c[nH]cn1)NC(=O)[C@H](CC(C)C)NC(=O)[C@H](CC(C)C)NC(=O)[C@H](CC(C)C)NC(=O)[C@@H](NC(=O)[C@@H](NC(=O)[C@@H](N)CCC(N)=O)[C@@H](C)O)C(C)C)C(=O)O [P9T] (H-QTVLLLHAL-OH) | did not interfere with the phosphorylation of p70S6K and mTOR activity |  |  |
| CC(C)C[C@H](NC(=O)[C@H](Cc1ccc(O)cc1)NC(=O)[C@H](CO)NC(=O)[C@H](Cc1c[nH]cn1)NC(=O)[C@H](CC(N)=O)NC(=O)CNC(=O)[C@H](Cc1ccc(O)cc1)NC(=O)[C@@H]1CCCN1C(=O)[C@@H](NC(=O)[C@H](CC(C)C)NC(=O)[C@@H](N)CCCNC(=N)N)C(C)C)C(=O)N[C@@H](CCC(=O)O)C(=O)N[C@@H](CO)C(=O)O [P13T] (H-RLVPYGNHSYLES-OH) | did not interfere with the phosphorylation of p70S6K and mTOR activity |  |  |
| B1 |  | 120 |  |
| B2 |  | 1560 |  |
| B3 |  | 130 |  |
| B4 |  |  | Kd (GAPR-1 [3]): 210 nM |
| B5 |  | 70 |  |
